Data taken from US8569242B2, “Method of treating degenerative disorders of the nervous system” (The Regents of the University of California, priority 2005, dated 2013).
“And” between values parts separate entries of the source, which are not always exact repeats. Equal entries are not always repeated.

What was measured:
fibrin = biological target: T1, fibrin (Mus musculus, UniProt E9PV24+Q8K0E8+Q8VCM7); experiment: In vitro fibrin polymerization turbidity assay in plasma; type: biochemical; conditions: citrate plasma, bovine thrombin 0.2 U/ml, OD350
T1 construct: from tissue; host or cells: citrated mouse plasma, diluted tenfold
T1 sequence (Q8VCM7 26-436): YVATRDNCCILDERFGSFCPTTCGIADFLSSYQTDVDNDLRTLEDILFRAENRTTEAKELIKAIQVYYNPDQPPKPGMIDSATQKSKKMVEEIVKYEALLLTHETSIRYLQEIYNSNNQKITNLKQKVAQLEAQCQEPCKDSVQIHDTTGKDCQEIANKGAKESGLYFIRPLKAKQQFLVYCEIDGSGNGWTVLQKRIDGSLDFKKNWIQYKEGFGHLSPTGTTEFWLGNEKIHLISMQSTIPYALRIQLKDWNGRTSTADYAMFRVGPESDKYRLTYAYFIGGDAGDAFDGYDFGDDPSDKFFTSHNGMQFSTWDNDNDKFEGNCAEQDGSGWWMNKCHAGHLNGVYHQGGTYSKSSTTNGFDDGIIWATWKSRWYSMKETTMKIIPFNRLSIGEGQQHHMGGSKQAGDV
T1 sequence (E9PV24 37-789 limits assumed): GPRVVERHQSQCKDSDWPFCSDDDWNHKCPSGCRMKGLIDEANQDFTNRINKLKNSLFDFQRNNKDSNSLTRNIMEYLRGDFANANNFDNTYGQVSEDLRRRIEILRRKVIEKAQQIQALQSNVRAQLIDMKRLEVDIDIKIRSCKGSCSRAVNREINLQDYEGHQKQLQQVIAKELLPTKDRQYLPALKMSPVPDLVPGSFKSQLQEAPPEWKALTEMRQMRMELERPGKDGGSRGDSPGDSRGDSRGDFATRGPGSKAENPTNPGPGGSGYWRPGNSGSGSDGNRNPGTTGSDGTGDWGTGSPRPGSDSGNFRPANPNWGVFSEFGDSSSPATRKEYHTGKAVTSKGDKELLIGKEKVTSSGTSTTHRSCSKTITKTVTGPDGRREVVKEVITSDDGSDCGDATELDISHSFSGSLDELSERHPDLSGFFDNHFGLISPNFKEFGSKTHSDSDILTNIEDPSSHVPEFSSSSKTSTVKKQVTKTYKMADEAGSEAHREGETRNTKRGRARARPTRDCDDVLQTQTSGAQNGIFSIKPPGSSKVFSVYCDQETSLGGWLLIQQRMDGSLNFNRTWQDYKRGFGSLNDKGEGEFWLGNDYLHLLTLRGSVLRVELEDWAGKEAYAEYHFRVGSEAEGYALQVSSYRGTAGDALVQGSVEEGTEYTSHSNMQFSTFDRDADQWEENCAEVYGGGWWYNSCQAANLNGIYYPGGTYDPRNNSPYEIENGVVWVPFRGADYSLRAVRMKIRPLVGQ
T1 sequence (Q8K0E8 35-481 limits assumed): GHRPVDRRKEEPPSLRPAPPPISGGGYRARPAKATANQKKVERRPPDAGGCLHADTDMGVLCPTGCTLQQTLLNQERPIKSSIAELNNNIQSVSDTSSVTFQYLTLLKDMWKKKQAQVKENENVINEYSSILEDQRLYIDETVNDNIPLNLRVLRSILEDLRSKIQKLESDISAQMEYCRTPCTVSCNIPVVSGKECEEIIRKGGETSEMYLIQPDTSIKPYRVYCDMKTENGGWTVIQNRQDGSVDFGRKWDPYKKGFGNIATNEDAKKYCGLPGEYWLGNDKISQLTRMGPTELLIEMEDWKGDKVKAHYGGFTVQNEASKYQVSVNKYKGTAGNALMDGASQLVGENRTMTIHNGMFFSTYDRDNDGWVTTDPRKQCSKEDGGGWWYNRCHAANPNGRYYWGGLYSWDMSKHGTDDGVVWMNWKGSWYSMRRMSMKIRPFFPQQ
Method: Hematological Analyses. Citrated plasma was prepared from mice administered intranasally 30 μg or 90 μg of γ^377-395 peptide or saline control daily for seven days. Plasma clotting times were measured by combining 10 μl of citrated plasma with 10 μl of 2 U/ml bovine thrombin (Enzyme Research Laboratories, South Bend, Ind., USA) and 40 mM. CaCl2 in a weigh boatfloating in a 37° C. water bath. Time to clot was determined by mixing with a toothpick. Plasma thrombin times were established as described previously (15). Fibrin polymerization was evaluated by standard turbidity assays using plasma. Briefly, citrate plasma (diluted tenfold in 20 mM HEPES, pH 7.4, containing 0.15 M NaCl and 5 mM-amino caproic acid) was combined with bovine thrombin (final concentration 0.2 U/ml; Enzyme Research Laboratories, South Bend, Ind., USA), and Ca^2+ (10 mM), and OD350 measurements were taken every 30 seconds.

[1] = test system: primary murine microglia and a murine microglia cell line (BV2); experiment: Vybrant phagocytosis assay in microglia; type: cell-based, mouse; conditions: fluorescent E. coli; stimulation with immobilized fibrinogen or LPS
Method: Phagocytosis assay. Phagocytosis assays were performed on both primary murine microglia and a murine microglia cell line (BV2). BV2 cells are an established cell line used to study microglia responses (46). BV2 cells were routinely passaged in DMEM, 20% heat inactivated FBS, and 1% Pen/Strep. Microglia phagocytosis was assessed using the Vybrant phagocytosis assay kit (Molecular Probes, Eugene, Oreg.) according to the manufacturer's recommendations. Microglia were cultured in 96-well plates at 5,000 cells/well for 36 hours at 37° C. Blocking experiments included the addition of LY294002 (1 μM, Cell Signaling, Beverly, Mass.), rat anti-CD11b ([…], eBioscience, San Diego, Calif.), rat anti-TLR4 (10 μg/mL, eBioscience, San Diego, Calif.) or rat IgG (10 μg/mL, Jackson ImmunoResearch Laboratories, West Grove, Pa.) to the media. Results were obtained from four separate experiments performed in triplicates. Statistical calculations were made by using Student's t-test.

RhoA = RhoA activation (GST-Rhotekin pull-down, immunoblot) in microglia; type: cell-based, mouse; conditions: fibrinogen 6 hours, LPS 10 minutes; densitometry
Method: (§1) Immunoblots. Western blots were performed using standard protocols (55). Microglia were serum-starved overnight and plated on fibrinogen or with LPS for 6 hours. Lysates were electrophoresed on 4-12% gradient SDS-PAGE gels and probed with phospho and total Akt antibodies (1:1000, Cell Signaling, Beverly, Mass.). RhoA activation was performed as described (60). Briefly, 2×107 microglia were plated on fibrinogen for 6 hours or with LPS for 10 minutes. Cell lysates were incubated with GST-Rhotekin agarose beads (kindly provided by Dr. Joan Heller Brown, UCSD) for 45 minutes at 4° C. The beads were washed, resuspended in Laemmli sample buffer, and electophoresed on a 15% SDS-PAGE gel. Activated and total Rho were detected with mouse anti-RhoA (1:500, Santa Cruz Biotechnology, Santa Cruz, Calif.). Densitometry was performed using the NIH Scion Image software using three blots from three separate experiments.

Akt = Akt phosphorylation immunoblot in microglia; type: cell-based, mouse; conditions: fibrinogen or LPS 6 hours; densitometry
Method: as §1

primary microglia = experiment: Morphometry of microglia activation (Isolectin B4 staining, cell size); type: cell-based, mouse
Method: Culture of primary microglia cells. Microglia were isolated from cultures of mixed cortical cells as described (59). In brief, cortices from P1 mice were isolated and digested with trypsin (0.4%) for 20 minutes at 37° C. Cells from 4 pups were plated onto PDL-coated 75 cm2 tissue-culture flasks. The culture medium (DMEM, 10% heat-inactivated FBS, and 1% Pen/Strep) was changed on day 2. After 2-3 weeks in culture, the microglia were removed by the addition of 12 mM lidocaine (Sigma-Aldrich, St. Louis, Mo.) and orbital shaking (180 rpm) for 20 minutes at 37° C. The cells were centrifuged (350×G) and the pellet was resuspended in complete medium and plated onto PDL-coated tissue culture dishes. Microglia cell cultures were >95% pure as determined with three different markers, IsoB4, IBA-1 and CD11b. To immobilize fibrinogen, tissue culture dishes were incubated overnight with 50 μg/mL fibrinogen (Calbiochem, San Diego, Calif.) in 20 mM Tris (pH 7.5) and 0.1 M NaCl at 37° C. for all fibrinogen treatments. To serve as positive controls, LPS (Sigma-Aldrich, St. Louis, Mo.) was added to the media at 1 μg/mL.
Morphometry. Primary microglia were used for all morphologic analysis. Cells were plated on coated fibrinogen or in the presence of LPS for 72 hours. Microglia were fixed with methanol and immunostained with Isolectin B4 (1:300, Sigma-Aldrich, St. Louis, Mo.). Activated microglia were quantificated as those cells larger than 2,000 μm^2. Blocking experiments involved the daily administration of rat anti-CD11b (10 μg/mL, eBioscience, San Diego, Calif.), γ^377-395 peptide (200 μM) or rat IgG (10 μg/mL, Jackson ImmunoResearch Laboratories, West Grove, Pa.). Results were obtained from six separate experiments performed in duplicates. 250 cells per condition were counted for each individual experiment. Statistical calculations were made by using Student's t test.

| Substance | effect on fibrin polymerization (fibrin) | effect on fibrin polymerization (fibrin; listed as GPRP) | increase in phagocytosis as compared to untreated controls [1] | increase of active RhoA (RhoA) | increase in Akt phosphorylation (Akt) | changes in microglia morphology (primary microglia; soluble, not immobilized, fibrinogen, data not shown) | % of activated microglia (primary microglia; stimulation with immobilized fibrinogen alone, 72 hours, activated = cells larger than 2,000 μm^2) |
| --- | --- | --- | --- | --- | --- | --- | --- |
| GPRP [GPRP peptide, reference compound] | inhibits | significantly attenuated |  |  |  |  |  |
| Lipopolysaccharide [LPS, reference compound] |  |  | 39.1% | 2.4 fold | 34 fold |  |  |
| Fibrinogen |  |  | 65.3% | 1.9 fold | 24 fold | did not induce changes in microglia morphology | 85.5±1.4% and 71±4.9% |
